From US12497460B2, “Anti-MSR1 antibodies and methods of use thereof” (REGENERON PHARMACEUTICALS, INC., priority 2018, dated 2025)
Read-outs that look alike come from different tables or passages of the source. Marks after values point to notes of the source that are not given here.

Legend:
[1] = system: LPS-induced IL-1β release in differentiated THP-1 cells; assay: LPS-mediated IL-1β release assay; type: cell-based, human; conditions: for IC50: Homo sapiens, 100 ng/ml LPS for 5 hours, read-out: IC50, inhibition of LPS-induced IL-1β secretion
Experimental: To test the anti-inflammatory properties of anti-MSR1 antibody-steroid conjugates in vitro, a lipopolysaccharide (LPS)-mediated IL-1β release assay was performed. For the assay, THP-1 cells were seeded onto 96 well plates at 40,000 cells/well in media containing RPMI supplemented with 10% FBS and pencillin/streptomycinin and differentiated with 200 nM Phorbol Myristate Acetate (PMA) for 3 days. After the 3-day differentiation period, three-fold serial dilutions of antibody drug conjugates, unconjugated antibodies, or free payloads in fresh media were added to the cells at final concentration ranging from 100 nM to 0.01 nM. Media alone served as a blank control. Subsequently at 24, 48, or 72 hours later, cells were treated with 100 ng/ml LPS (InVivoGen, Cat #tlrl-eklps) for 5 hours. The cell media was then collected, and IL-1β levels were measured using a V-PLEX Proinflammatory Panel 1 human kit (Meso Scale Diagnostics, Cat #15049D-2) as per manufacturer's instructions. Subsequently, the plate was read on a Meso Scale Diagnostics instrument.
IC50 values were determined from a four-parameter logistic equation over a 10-point response curve (GraphPad Prism). All IC50 values are expressed in M (molar) concentration. The IC50 values and IL-1β amount at the maximum concentration of antibody-steroid conjugates or controls are shown in Table 22 each of the time point tested.

[2] = system: Msr1^hu/hu ApoE^−/− mice, peritoneal cells; assay: Ex vivo LPS-induced cytokine production by peritoneal cells after in vivo dosing; design: species or system mouse; conditions: administered 2 hours before peritoneal cell isolation; ex vivo LPS
Experimental: To examine the anti-inflammatory effect of the anti-MSR1 antibody-steroid conjugates, an ex-vivo and in vivo LPS-induced inflammatory immune response model was performed.
Generation of a mouse inflammatory immune response model. Mice homozygously expressing human MSR1 extracellular domain in place of the mouse MSR1 extracellular domain and with a homozygous deletion of the ApoE gene were utilized (resulting mice referred to as Msr1^hu/hu ApoE^−/− mice).
(§1) Assay protocol for ex vivo LPS-induced responses. In ex vivo LPS challenge experiments, mice were intraperitoneally administered with 10 μL/g of anti-MSR1 antibody-steroid conjugates (H1H21234N-N297Q-LP13), isotype control steroid conjugate (Isotype control-LP13), unconjugated anti-MSR1 antibody (H1H21234N-N297Q) and isotype control antibodies at different time points (24, 48, and 72 hours) prior to harvesting the peritoneal cells from peritoneal cavity. […] All mice were sacrificed at 0 hour time point and peritoneal cells were obtained from the peritoneum by the peritoneal lavage technique. In brief, 5 mL of ice cold 1×PBS (ThermoFisher Scientific, Cat #20012027) containing 2% BSA (Gibco, Cat #A9576) and 0.6 mM EDTA (ThermoFisher Scientific, Cat #15575020) were injected into the peritoneal cavity using 27 g needle. […] The resuspended cells were plated at 500,000 cells per well in 24-well tissues culture plates and incubated with or without 10 ng/mL of LPS for 18 hours.
Measurement of cytokines at 18 hours post-LPS ex vivo challenge. Supernatants were collected into 96-well round bottom tissue culture plates at 18 hours post-ex vivo LPS challenge and stored at […] until further analysis. Cytokine concentrations in the supernatants were measured using a Proinflammatory Panel 1 (mouse) multiplex immunoassay kit (MesoScale Diagnostics, Cat #K15048D) according to manufacturer's instructions. Electrochemiluminescence was read on a Meso Scale Diagnostics SECTOR® instrument. Data analysis was performed using GraphPad Prism™ software. Statistical significance within the groups was determined by one-way Anova with Turkey's multiple comparison post-test (*p<0.01; **p<0.001; ***p<0.0001).

[3] = system: Msr1^hu/hu ApoE^−/− mice, peritoneal macrophages; assay: LPS-mediated expression of CD80 on peritoneal macrophages (flow cytometry); type: in vivo, mouse; conditions: administered 2 hours before
Experimental: as §1
Assay protocol for in vivo LPS-induced responses. In in vivo LPS challenge experiments, mice were intraperitoneally administered with 10 μL/g of decreasing concentrations of anti-MSR1 antibody-steroid conjugates (H1H21234N-N297Q-LP13) and isotype control steroid conjugate (Isotype control-N297Q-LP13) at 24 hours prior to in vivo LPS challenge. PBS and free steroid P4 were intraperitoneally injected at 2 hours prior to in vivo LPS challenge. At 0 hour time point, three large drops of blood (volume ˜ 100 μL) were collected from the maxillary vein of each mouse into serum gel separator tubes. The tubes were centrifuged at 2200-2500 rpm for 15 minutes, and the serum was collected into 96-well plates for subsequent measurement of cytokines. At 18 hours post in vivo LPS challenge, the peritoneal cells were obtained from periotenal cavity as aforementioned for subsequent flow cytometry analysis.
Analysis of expression of activation markers on peritoneal macrophages after LPS ex vivo challenge. Upon collection of supernatants for cytokine analysis, the plates were washed twice with 1×PBS w/o Ca^++/Mg2^++ (ThermoFisher Scientific, Cat #14190144), and the adherent peritoneal cells were harvested by addition of 250-300 μL of cold Macrophage Detachment Solution DXF (PromoCell, Cat #C41330) for 40 minutes. The detached cells were collected into 50-mL tubes and centrifuged at 350×g for 15 minutes. After two washes with 1×PBS supplemented with 2 mM EDTA, the cells were resuspended in Cell Staining Buffer (Biolegend, #420201) and plated at 1×10^6 cells per well in a 96-well V bottom plate. […] Data were analyzed using FlowJo (Tree Star).

[4] = system: hMSR1/ApoE-KO mice; assay: CAIA, pro-inflammatory cytokines in joint homogenates; type: in vivo, mouse
Experimental: (§2) To induce CAIA, hMSR1/ApoE-KO mice were intraperitoneally injected with an 8 mg/kg mixture of five anti-type II collagen mAbs (Chondrex, Cat #53100, Lot #180140) on day 0, followed by intraperitoneal administration with 50 μg lipopolysaccharide (LPS; 0111:B4; Chondrex, Cat #53100, Lot #180141) on day 3. Severity of the […] levels of arthritis was graded up to 13 days after mAb injection in each of the four limbs per mouse on a […]. The criteria for the grading were as follows: 0, normal; 1, mild redness and swelling of ankle/wrist or individual digits; 2, moderate redness and swelling of ankle/wrist; 3, severe redness and swelling of the entire paw including the digits; 4, maximal swelling in limbs involving multiple joints. The maximum value of the sum of the scores obtained from the four limbs of each mouse was 16. […] PBS, unconjugated anti-MSR1 Ab (H1H21234N-N297Q) and free steroid payload (P4-1), were intraperitoneally injected every other day or daily (referred to as P4-1 ED). All mice were sacrificed on day 13 and inflamed patella were collected for subsequent homogenization and cytokine detection.
Inflamed knee patella were collected in 2 mL microcentrifuge tubes containing two tungsten carbide beads (Qiagen, Cat #69997) and 500 μL of T-per buffer (Thermo Scientific, Cat #78510, Lot #QF217759) containing protease inhibitor cocktail and 0.5M EDTA (Thermo Scientific, Cat #78444, Lot #RF231047). Tissues were disrupted at the frequency of 30s^−1 for 10 minutes using Qiagen Tissue Lyser II, centrifuged at 14,000 rpm for 7 minutes, and then supernatants were collected without disturbing the pellet. Cytokine concentrations in the supernatants were measured using a Proinflammatory Panel 1 (mouse) multiplex immunoassay kit (MesoScale Discovery, Cat #K15048D) according to the manufacturer's instructions. In brief, 50 μL/well of calibrators and samples (diluted in Diluent 41) were added to the plates pre-coated with capture antibodies and incubated at room temperature while shaking at 700 rpm for 2 hours. The plates were then washed 3 times with 1×PBS containing 0.05% (w/v) Tween-20, followed by the addition of 25 μL of Detection Antibody Solution diluted in Diluent 45. After 2-hour incubation at room temperature while shaking, the plates were washed 3 times, and 150 μL of 2× Read Buffer was added to each well. Electrochemiluminescence was immediately read on MSD Spector© instrument. Cytokine concentrations were normalized per total protein content in tissue homogenates measured using Bradford protein assay (BioRad, Cat #5000006, Lot #64144266). Data analysis was performed using GraphPad Prism™ software. Statistical significance within the groups was determined by one-way Anova with Turkey's multiple comparison post-test (*p<0.01; **p<0.001; ***p<0.0001).

[5] = system: hMSR1/ApoE-KO mice; assay: Anti-type II collagen antibody-induced arthritis (CAIA), clinical scores; type: in vivo, mouse
Experimental: An MSR1-non-cytotoxic antibody drug (ncADC) conjugate was tested in anti-type II collagen antibody-induced arthritis (CAIA) in vivo; cytokine detection in inflamed joints using Proinflammatory Panel 1 (mouse) Multiplex Immunoassay kit (MSD)
To further examine the anti-inflammatory effect of the anti-MSR1 Ab-steroid ncADC, the ncADC was evaluated in a collagen-antibody induced arthritis (CAIA) model in vivo. For the model, mice homozygously expressing human MSR1 extracellular domain and transmembrane domain in place of mouse MSR1 extracellular and transmembrane domains (humanized MSR1) and with a homozygous deletion of the ApoE gene (ApoE-KO) were utilized (resulting mice referred to as hMSR1/ApoE-KO mice).
as §2

[6] = joint homogenates, 2.95 mg/kg every 2 days

Row | SMILES | IL1beta released at max concentration tested ([1]; 24 hour treatment before LPS) | IL1beta released at max concentration tested ([1]; 48 hour treatment before LPS) | IL1beta released at max concentration tested ([1]; 72 hour treatment before LPS) | IC50 ([1]; THP-1, 24-hour time point) | IC50 ([1]; THP-1, 48-hour time point) | IC50 ([1]; THP-1, 72-hour time point) | Cytokine IL-6 [2] | Cytokine KC-GRO [2] | Cytokine TNF-α [2] | LPS-mediated expression of CD80, pMΦ Cells ([3]; hMSR1+F4/80+CD11b+ peritoneal macrophages) | LPS-mediated expression of CD80, non-pMΦ Cells ([3]; hMSR1−F4/80−CD11b− cells) | pro-inflammatory cytokine levels in inflamed joints ([4]; administered every other day) | Cytokines IL-1β [4, 6] | Cytokines IL-6 [4, 6] | Cytokines KC-GRO [4, 6] | Cytokines TNF-α [4, 6] | Clinical Score ([5]; 2.95 mg/kg, every 2 days d6-d12) | inhibition of CAIA ([5]; dosed every day (P4-1ED), compared with H1H21234N-N297Q-P4-3 at 21 mg/kg) | severity of CAIA (clinical scores) ([5]; every other day)
1 | C[C@@H]1C[C@H]2[C@@H]3CCC4=CC(=O)C=C[C@]4(C)[C@@]3(F)[C@@H](O)C[C@]2(C)[C@@]1(O)C(=O)CO [Dexamethasone, dexamethasone, reference compound] | 45.33 pg/mL | 11.8 pg/mL | 13.34 pg/mL | 0.42 nM | 0.794 nM | 0.543 nM | 134.5 ± 18.2* ng/mL | 19.9 ± 1.5 ng/mL | 0.63 ± 0.11* ng/mL | 77.69 ± 2.6 % relative to PBS/LPS-treatment | 99.6 ± 5.8 % relative to PBS/LPS-treatment | – | – | – | – | – | – | – | –
2 | CCC[C@@H]1O[C@@H]2C[C@H]3[C@@H]4C[C@H](F)C5=CC(=O)C=C[C@]5(C)[C@@]4(F)[C@@H](O)C[C@]3(C)[C@]2(C(=O)CN)O1 [P4-1, (1S,2S,4R,6R,8S,9S,11S,12R,13S,19S)-8-(2-Aminoacetyl)-12,19-difluoro-11-hydroxy-9,13-dimethyl-6-propyl-5,7-dioxapentacyclo[10.8.0.0^2,9.0^4,8.0^13,18]icosa-14,17-dien-16-one] | – | – | – | – | – | – | – | – | – | – | – | No effect | 20.6 ± 4.3 pg per mg of total protein | 131.4 ± 40.9 pg per mg of total protein | 8.9 ± 9 pg per mg of total protein | 8.3 ± 1.9 pg per mg of total protein | 9.4 ± 2.46 | Comparable inhibition of CAIA | did not attenuate CAIA
